Broadly, the pEC50 is −log10 of the EC50, conventionally taken in molar units.

pEC50: −log10 of the molar value.

The values below come from patent US20150344457A1, “METHODS OF INHIBITING PRMT5” (EPIZYME, INC., priority 2012, published 2015).

This test relates to Z-138 cells. Put plainly: Z-138 Methylation Assay (In Cell Western for symmetric di-methyl arginine and DNA content). It is filed as cell-based. The following applies: Homo sapiens, Table A-2, 96 hours, symmetric di-methyl arginine, read-out: ICW EC50. The source says: Z-138 suspension cells were purchased from ATCC (American Type Culture Collection, Manassas, Va.). RPMI/Glutamax medium, penicillin-streptomycin, heat inactivated fetal bovine serum, and D-PBS were purchased from Life Technologies, Grand Island, N.Y., USA. Odyssey blocking buffer, 800CW goat anti-rabbit IgG (H+L) antibody, and Licor Odyssey infrared scanner were purchased from Licor Biosciences, Lincoln, Nebr., USA. Symmetric di-methyl arginine antibody was purchased from EMD Millipore, Billerica, Mass., USA. 16% Paraformaldehyde was purchased from Electron Microscopy Sciences, Hatfield, Pa., USA.
Z-138 suspension cells were maintained in growth medium (RPMI 1640 supplemented with 10% v/v heat inactivated fetal bovine serum and 100 units/mL penicillin-streptomycin) and cultured at 37° C. under 5% CO2.
Cell Treatment, in Cell Western (ICW) for Detection of Symmetric Di-Methyl Arginine and DNA Content.
Z-138 cells were seeded in assay medium at a concentration of 50,000 cells per mL to a 384-well cell culture plate with 50 μL per well. Compound (100 nL) from 384 well source plates was added directly to 384 well cell plate. Plates were incubated at 37° C., 5% CO2 for 96 hours. After four days of incubation, 40 μL of cells from incubated plates were added to poly-D-lysine coated 384 well culture plates (BD Biosciences 356697). Plates were incubated at room temperature for 30 minutes then incubated at 37° C., 5% CO2 for 5 hours. After the incubation, 40 μL per well of 8% paraformaldehyde in PBS (16% paraformaldahyde was diluted to 8% in PBS) was added to each plate and incubated for 30 minutes. Plates were transferred to a Biotek 405 plate washer and washed 5 times with 100 μL per well of wash buffer (1×PBS with 0.1% Triton X-100 (v/v)). Next 30 μL per well of Odyssey blocking buffer were added to each plate and incubated 1 hour at room temperature. Blocking buffer was removed and 20 μL per well of primary antibody was added (symmetric di-methyl arginine diluted 1:100 in Odyssey buffer with 0.1% Tween 20 (v/v)) and plates were incubated overnight (16 hours) at 4° C. Plates were washed 5 times with 100 μL per well of wash buffer. Next 20 μL per well of secondary antibody was added (1:200 800CW goat anti-rabbit IgG (H+L) antibody, 1:1000 DRAQS (Biostatus limited) in Odyssey buffer with 0.1% Tween 20 (v/v)) and incubated for 1 hour at room temperature. The plates were washed 5 times with 100 μL per well wash buffer then 1 time with 100 μL per well of water. Plates were allowed to dry at room temperature then imaged on the Licor Odyssey machine which measures integrated intensity at 700 nm and 800 nm wavelengths. Both 700 and 800 channels were scanned.
First, the ratio for each well was determined by:
Each plate included fourteen control wells of DMSO only treatment (minimum inhibition) as well as fourteen control wells for maximum inhibition treated with 3 μM of a reference compound (Background wells). The average of the ratio values for each control type was calculated and used to determine the percent inhibition for each test well in the plate. Reference compound was serially diluted three-fold in DMSO for a total of nine test concentrations, beginning at 3 μM. Percent inhibition was determined and IC50 curves were generated using triplicate wells per concentration of compound.
For `CS(=O)(=O)c1cccc(OCC(=O)NCC(O)CN2CCc3ccccc3C2)c1` (centres unmarked) [Compound A47], the negative logarithm of the EC50 (pEC50) was 6.00 to 7.00.
Regarding `CNC(=O)c1ccccc1OCC(=O)NCC(O)CN1CCc2ccccc2C1` (centres unmarked) [Compound A112], the pEC50 is 6.00 to 7.00.
Consider `CN(C)c1ccc2cccc(OCC(=O)NC[C@H](O)CN3CCc4ccccc4C3)c2n1` [Compound A104], for which the negative logarithm of the EC50 (pEC50) is 5.00 to 6.00.
On to `CN1CCC(n2ncc3cc(OCC(=O)NCC(O)CN4CCc5ccccc5C4)ccc32)C1` (centres unmarked) [Compound A96], for which the pEC50 is 6.00 to 7.00.
Take `CC(=O)N1CCc2c(cccc2OCC(=O)NCC(O)CN2CCc3ccccc3C2)C1` (centres unmarked) [Compound A101]: the pEC50 is over 7.00.
To `O=C(COc1cccc2c1CNCC2)NCC(O)CN1CCc2ccccc2C1` (centres unmarked) [Compound A119] belongs 6.00 to 7.00; to `O=C(COc1ccccc1N1CCOCC1)NCC(O)CN1CCc2ccccc2C1` (centres unmarked) [Compound A49], 6.00 to 7.00.
In the case of `CS(=O)(=O)Nc1ccccc1OCC(=O)NCC(O)CN1CCc2ccccc2C1` (centres unmarked) [Compound A53], the pEC50 is 6.00 to 7.00.
As for `O=C(COc1ccccc1C1CCCCC1)NCC(O)CN1CCc2ccccc2C1` (centres unmarked) [Compound A40], the pEC50 is 6.00 to 7.00.
For the compound `COc1ccccc1OCC(=O)NCC(O)CN1CCc2ccccc2C1` (centres unmarked) [Compound A22], the negative-log EC50 (pEC50) is 6.00 to 7.00.
The value for `O=C(COc1ccccc1C1CCNC1)NCC(O)CN1CCc2ccccc2C1` (centres unmarked) [Compound A116] was 5.00 to 6.00.
The value for `CN(C)c1ccc2cccc(OCC(=O)NC[C@@H](O)CN3CCc4ccccc4C3)c2n1` [Compound A105] was 6.00 to 7.00; that for `CN(C)c1cccc(OCC(=O)NCC(O)CN2CCc3ccccc3C2)c1` (centres unmarked) [Compound A27] was 6.00 to 7.00; that for `O=C(COc1cccc2c1OCCO2)NCC(O)CN1CCc2ccccc2C1` (centres unmarked) [Compound A100] was over 7.00.
For the compound `C[C@@H](Oc1cccc2cccnc12)C(=O)NC[C@@H](O)CN1CCc2ccccc2C1` [Compound A74], the pEC50 was 6.00 to 7.00.
Turning to `CC(=O)N1CCN(S(=O)(=O)c2ccccc2OCC(=O)NCC(O)CN2CCc3ccccc3C2)CC1` (centres unmarked) [Compound A122], the pEC50 is 5.00 to 6.00.
Regarding `CN1CCN(S(=O)(=O)c2ccccc2OCC(=O)NCC(O)CN2CCc3ccccc3C2)CC1` (centres unmarked) [Compound A108], the negative-log EC50 (pEC50) is 6.00 to 7.00.
The value for `CNS(=O)(=O)c1ccccc1OCC(=O)NCC(O)CN1CCc2ccccc2C1` (centres unmarked) [Compound A123] was 6.00 to 7.00; that for `CC(Oc1cccc2cccnc12)C(=O)NCC(O)CN1CCc2ccccc2C1` (centres unmarked) [Compound A39] was over 7.00.
The value for `NC(=O)c1ccccc1OCC(=O)NCC(O)CN1CCc2ccccc2C1` (centres unmarked) [Compound A29] was 6.00 to 7.00.
The value for `CC(=O)Nc1ccccc1OCC(=O)NCC(O)CN1CCc2ccccc2C1` (centres unmarked) [Compound A36] was 6.00 to 7.00; that for `N#Cc1ccccc1OCC(=O)NCC(O)CN1CCc2ccccc2C1` (centres unmarked) [Compound A17] was 6.00 to 7.00.
In the case of `O=C(COc1ccccc1C1CCCNC1)NCC(O)CN1CCc2ccccc2C1` (centres unmarked) [Compound A117], the negative-log EC50 (pEC50) was 6.00 to 7.00.
Regarding `CC(=O)Nc1ccc(OCC(=O)NCC(O)CN2CCc3ccccc3C2)cc1` (centres unmarked) [Compound A21], the pEC50 is 6.00 to 7.00.
As to `CC(C)(Oc1cccc2cccnc12)C(=O)NCC(O)CN1CCc2ccccc2C1` (centres unmarked) [Compound A43], the pEC50 was 6.00 to 7.00.
Regarding `O=C(COc1ccccc1C1CCNCC1)NCC(O)CN1CCc2ccccc2C1` (centres unmarked) [Compound A103], the pEC50 is 6.00 to 7.00.
On to `Cn1ncc2ccc(OCC(=O)NCC(O)CN3CCc4ccccc4C3)cc21` (centres unmarked) [Compound A23], for which the pEC50 is 6.00 to 7.00.
Consider `O=C(COc1cccc2ccc(N3CCOCC3)nc12)NCC(O)CN1CCc2ccccc2C1` (centres unmarked) [Compound A48], for which the negative logarithm of the EC50 (pEC50) is 6.00 to 7.00.
As to `COc1ccc2cccc(OCC(=O)NC[C@H](O)CN3CCc4ccccc4C3)c2n1` [Compound A97], the negative logarithm of the EC50 (pEC50) is 6.00 to 7.00.
The value for `CS(=O)(=O)c1ccccc1OCC(=O)NCC(O)CN1CCc2ccccc2C1` (centres unmarked) [Compound A37] was over 7.00; that for `O=C(COc1cccc2ccccc12)NCC(O)CN1CCc2ccccc2C1` (centres unmarked) [Compound A66] was 6.00 to 7.00; that for `O=C(COc1ccc2ncn(C3CCNCC3)c2c1)NCC(O)CN1CCc2ccccc2C1` (centres unmarked) [Compound A70] was 6.00 to 7.00.
To `COc1ccc2cccc(OCC(=O)NC[C@@H](O)CN3CCc4ccccc4C3)c2n1` [Compound A98] belongs over 7.00; to `CS(=O)(=O)N1CCc2c(cccc2OCC(=O)NCC(O)CN2CCc3ccccc3C2)C1` (centres unmarked) [Compound A102], over 7.00.
Regarding `CN1CCc2cccc(OCC(=O)NCC(O)CN3CCc4ccccc4C3)c2C1` (centres unmarked) [Compound A120], the pEC50 is 5.00 to 6.00.
To `Cc1ccccc1OCC(=O)NCC(O)CN1CCc2ccccc2C1` (centres unmarked) [Compound A15] belongs 6.00 to 7.00.
Regarding `CN(C)c1ccccc1OCC(=O)NCC(O)CN1CCc2ccccc2C1` (centres unmarked) [Compound A38], the pEC50 is over 7.00.
Regarding `O=C(COc1cccc2c1CCCC2)NCC(O)CN1CCc2ccccc2C1` (centres unmarked) [Compound A64], the pEC50 is 6.00 to 7.00.
`Cc1cccc(OCC(=O)NCC(O)CN2CCc3ccccc3C2)c1` (centres unmarked) [Compound A26]: the pEC50 is 6.00 to 7.00.
With `O=C(CNc1ccccc1)NCC(O)CN1CCc2ccccc2C1` (centres unmarked) [Compound A18], the negative logarithm of the EC50 (pEC50) is 5.00 to 6.00.
Take `O=C(COc1ccccc1-c1ncc[nH]1)NCC(O)CN1CCc2ccccc2C1` (centres unmarked) [Compound A137]: the pEC50 is 5.00 to 6.00.
Regarding `CN(c1cccc(OCC(=O)NCC(O)CN2CCc3ccccc3C2)c1)S(C)(=O)=O` (centres unmarked) [Compound A142], the pEC50 is 6.00 to 7.00.
`CN(C)c1ncccc1OCC(=O)NCC(O)CN1CCc2ccccc2C1` (centres unmarked) [Compound A127]: the pEC50 is 5.00 to 6.00.
For `O=C(COc1ccccc1F)NCC(O)CN1CCc2ccccc2C1` (centres unmarked) [Compound A16], the negative-log EC50 (pEC50) is 6.00 to 7.00.
Take `O=C(COc1ccccc1)NC[C@H](O)CN1CCc2ccccc2C1` [Compound A32]: the pEC50 is 6.00 to 7.00.
Turning to `CN1CCc2c(cccc2OCC(=O)NCC(O)CN2CCc3ccccc3C2)C1` (centres unmarked) [Compound A99], the pEC50 was 6.00 to 7.00.
Regarding `CN1CCCC(c2ccccc2OCC(=O)NCC(O)CN2CCc3ccccc3C2)C1` (centres unmarked) [Compound A130], the pEC50 is 6.00 to 7.00.
In the case of `CN(C)S(=O)(=O)c1ccccc1OCC(=O)NCC(O)CN1CCc2ccccc2C1` (centres unmarked) [Compound A109], the pEC50 was over 7.00.
To `Cn1cc2c(OCC(=O)NCC(O)CN3CCc4ccccc4C3)cccc2n1` (centres unmarked) [Compound A118] belongs 5.00 to 6.00.
On to `CC(Oc1ccccc1)C(=O)NCC(O)CN1CCc2ccccc2C1` (centres unmarked) [Compound A19], for which the negative logarithm of the EC50 (pEC50) is 6.00 to 7.00.
As for `CN1CCC(c2ccccc2OCC(=O)NCC(O)CN2CCc3ccccc3C2)CC1` (centres unmarked) [Compound A134], the pEC50 is 5.00 to 6.00.
For `COc1cccc(OCC(=O)NCC(O)CN2CCc3ccccc3C2)c1` (centres unmarked) [Compound A20], the pEC50 is 6.00 to 7.00.
Consider `O=C(COc1ccccc1-c1cc[nH]n1)NC[C@@H](O)CN1CCc2ccccc2C1` [Compound A67], for which the negative logarithm of the EC50 (pEC50) is over 7.00.
Take `O=C(COc1cccc2c1OCC(=O)N2)NCC(O)CN1CCc2ccccc2C1` (centres unmarked) [Compound A124]: the negative-log EC50 (pEC50) is 5.00 to 6.00.
To `CS(=O)(=O)N1CCN(c2ccccc2OCC(=O)NCC(O)CN2CCc3ccccc3C2)CC1` (centres unmarked) [Compound A106] belongs 6.00 to 7.00; to `N#Cc1cccc(OCC(=O)NCC(O)CN2CCc3ccccc3C2)c1` (centres unmarked) [Compound A8], 6.00 to 7.00.
As for `O=C(COc1cccc2cccnc12)NC[C@@H](O)CN1CCc2ccccc2C1` [Compound A45], the negative logarithm of the EC50 (pEC50) was over 7.00.
Take `O=C(COc1ccccc1S(=O)(=O)N1CCNCC1)NCC(O)CN1CCc2ccccc2C1` (centres unmarked) [Compound A107]: the pEC50 was over 7.00.
As for `C[C@@H](Oc1cccc2cccnc12)C(=O)NC[C@H](O)CN1CCc2ccccc2C1` [Compound A73], the negative logarithm of the EC50 (pEC50) was over 7.00.
Consider `O=C(COc1cccc2cccnc12)NCC(O)CN1CCc2ccccc2C1` (centres unmarked) [Compound A6], for which the negative-log EC50 (pEC50) is over 7.00.
To `O=C(COc1ccccc1-c1cc[nH]n1)NCC(O)CN1CCc2ccccc2C1` (centres unmarked) [Compound A50] belongs over 7.00.
The value for `COc1ccc(OCC(=O)NCC(O)CN2CCc3ccccc3C2)cc1` (centres unmarked) [Compound A12] was 6.00 to 7.00.
